How the values were obtained:
[1] = test system: gene switch controlled mbIL-15 expression in CD19-specific CAR T cells; assay: Flow cytometry of mbIL-15 expression, veledimex ON-OFF-ON, SB gene switch CD19 CAR-T cells; assay type: cell-based, human
Description: Various DNA plasmids expressing a SB transposon system, i.e. SB11, membrane bound IL-15 (mbIL-15), and chimeric antigen receptor (CAR), were transfected to peripheral blood mononuclear cells (PBMC) via nucleofection to redirect T cell specificity (FIG. 1).
On day 0, 20 million PBMC were resuspended in 100 μL of Amaxa Human T cell Nucleofector solution (Cat. no. VPA-1002; Lonza, Basel, Switzerland) mixed with a total of 15 μg of transposons and 5 μg of transposase (SB11) and electroporated.
The following day (day 1) cells were counted, and CAR expression was measured by flow cytometry. CAR T Cells were stimulated with either γ-irradiated (100 Gy) or mitomycin C treated AaPCs at a 1:1 ratio. The AaPC cells used were K562-AaPC expressing CD19 antigen. Cultures were supplemented with IL-21 (30 ng/ml) only for the first round of stimulation and subsequently with recombinant human IL-2 (50 IU/ml) and IL-21 (30 ng/ml) (Pepro Tech) for remaining stimulations. T cell cultures were phenotyped at the end of each stimulation cycle, which typically lasted 7 days. The cultures were phenotyped for CAR expression by multi-parameter flow cytometry utilizing either Protein L or anti-idiotype antibody that recognizes CD19-specific CAR. Cultures were also closely monitored for the outgrowth of NK cells (defined as CD3negCD56+ population) and were removed from the CAR T cell cultures when the percentage exceeded 10% of total cell populations using magnetic beads for specific for CD56 (Stem Cell Technologies and/or Miltenyi Biotec), according to the manufacturer's instructions.
CD19-specific T cells were generated from mononuclear cells (MNC) derived from PB or UCB using SB transposition to introduce the CAR followed by addition of AaPC to numerically expand the T cells in a CAR-dependent manner.
For flow cytometry analysis to assess expression of various markers and gene(s) of interest, cells were gently resuspended and cell number, and viability were measured using Trypan blue exclusion method with the Countess instrument. Cell diameter size was also recorded. 5×10^5 cells for each for the samples were harvested at 330×g for 4 min at 10° C. for antibody staining. Harvested cells were incubated on ice for at least 15 min with 10% human AB serum in HBSS. Antibody cocktails containing fluorescently conjugated antibodies included one or more of antibodies specific to CD4 (Clone RPA-T4), CD8 (Clone SK1), CD3 (Clone UCHT1), CD56, CD19-specific CAR (anti-idiotype antibody), IL-15, and IL-15Rα, in HBSS+0.1% BSA+2 mM EDTA. The prepared antibody cocktails and associated fluorescence minus one/isotype control were added to stain the cell samples, and then the samples were incubated on ice for 30 min. The samples were then washed then with FACS buffer (HBSS+0.5% BSA+2 mM EDTA) and stained with Fixable Viability Dye (eBiosciences) for 30 min on ice. Cells were washed with FACS buffer and then fixed with a 4% paraformaldehyde solution (BD Cytofix; BD Biosciences). All samples were run on a LSR II flow cytometer, a Fortessa X-20 flow cytometer (BD Biosciences) or iQue Screener Plus (Intellicyt) and data was analyzed using FlowJo V10 (TreeStar, Ashland, Oreg.) or iQue Screener software.
For induction of expression using ligand (veledimex), AaPC stimulated CAR-T cells were harvested at 1×10^6 cells/ml. Either veledimex or DMSO (to keep DMSO concentration constant in both cultures) was added to the cultures. Veledimex was used at a concentration of 20 nM, 50 nM, 100 nM or as described. Cells were then cultured at 37° C. in presence of veledimex or DMSO for 2-3 days. After 2-3 days in culture, 5×10^5 cells for each for the samples were harvested at 330×g for 4 min at 10° C. for antibody staining. Harvested cells were incubated on ice for at least 15 min with 10% human AB serum in HBSS. […]

[2] = test system: RTS-mbIL-15 in CD19 CAR T cells; assay: Western blot of mbIL-15 expression; assay type: cell-based, human; conditions: CD19 CAR+RTS-mbIL-15 cells, veledimex 2-3 days after four rounds of stimulation
Description: PBMC were nucleofected with plasmids of Sleeping Beauty system to express CD19-specific CAR under constitutive promoter (CD19 CAR alone), or CD19-specific CAR and mbIL-15 both under constitutive promoters (CD19 CAR+constitutive-mbIL-15) or CD19-specific CAR under constitutive promoter and RTS-mbIL-15 (CD19 CAR+RTS-mbIL-15). Nucleofected cells were cultured in presence of AaPC as described in Example 1.
After four rounds of stimulations, cells were cultured in absence (CD19 CAR alone, CD19 CAR+constitutive-mbIL-15 and CD19 CAR+RTS-mbIL-15) or presence (CD19 CAR+RTS-mbIL-15) of veledimex for 2-3 days. Cell lysates were prepared for western blot analysis. Approximately 10 μg lysate/lane of NuPAGE 10% Bis-Tris gel was loaded. Proteins were transferred from gel to a polyvinylidene fluoride (PVDF) membranes using the iBlot® (Life Technologies) semi-dry transfer apparatus. Membrane was blocked using a 5% (w/v) powdered milk solution in a PBS+Tween-20 (PBST; 1×PBS+0.05% Tween-20) solution stained with goat anti-human IL-15 (R&D Systems) primary antibody and rabbit anti-goat IgG HRP (KPL Laboratories) secondary antibody. […]
Image of the western blot were captured on the FluorChem™ E Imager (ProteinSimple, San Jose, Calif.) system using the Digital Darkroom software and AlphaView® software (ProteinSimple). […] In CD19 CAR+constitutive-mbIL-15 positive control, expression of mbIL-15 was detected.

## CCC[C@@H](N(NC(=O)c1cccc(OC)c1CC)C(=O)c1cc(C)cc(C)c1)C(C)(C)C [veledimex, N-[(1R)-1-(1,1-dimethylethyl)butyl]-N′-(2-ethyl-3-methoxybenzoyl)-3,5-dimethylbenzohydrazide]
[1]; 2 day incubation at 100, 25, 6.25, 1.56, 0.4 and 0 nM, gated FSC/SSC/LIVE/CD3+
  mbIL-15 expression versus veledimex concentration: dose response
[1]; day 29 post nucleofection, gated on CD19-specific CAR positive populations
  expression of mbIL-15 post ligand addition: turned on
[1]; day 35 post nucleofection, gated on CD19-specific CAR positive populations
  expression of mbIL-15 post ligand withdrawal: turned off
[1]; day 40 post nucleofection, gated on CD19-specific CAR positive populations
  expression of mbIL-15 after re-introduction of ligand: maintained
[1]; day 48 post nucleofection, gated on CD19-specific CAR positive populations
  expression of mbIL-15 after re-introduction of ligand: continuously maintained
[1]; day 50 post nucleofection, gated on CD19-specific CAR positive populations
  expression of mbIL-15 after re-introduction of ligand: continuously maintained
[2]
  mbIL-15 expression by western blot: strong expression of mbIL-15

— US11692194B2, “Modulating expression of polypeptides via new gene switch expression systems” (Precigen, Inc., priority 2017, dated 2023)
